This note sets out measurements from patent publication US20150011541A1, “PIPECOLATE-SULFONAMIDES FOR TREATMENT OF PSYCHIATRIC DISORDERS” (Max-Planck-Gesellschaft zur Förderung der Wissenschaften …, priority 2011, published 2015).

Read-outs that look alike come from different tables or passages of the source. Where only a bound is given, the exact number is not on record here.

One experiment addresses T1, human FKBP51FK1 (Homo sapiens, UniProt Q13451).
T1 sequence (Q13451 42-130 limits assumed): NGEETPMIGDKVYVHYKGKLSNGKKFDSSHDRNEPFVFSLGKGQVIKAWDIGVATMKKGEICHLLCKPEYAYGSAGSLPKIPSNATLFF
As to the kind of experiment: Fluorescence polarization assay, binding to FK1 domain of FKBP51. The conditions noted are these: for IC50: binding affinity, fluorescence polarization assay; for inhibition at 5 µM: read-out: FKBP 51 FK1 % inhibition. For orientation: Polarisation of emitted light reports the rotation of a fluorescent probe.

The target in another experiment is T2, human FKBP52FK1 (Homo sapiens, UniProt Q02790).
T2 sequence (Q02790 50-138 limits assumed): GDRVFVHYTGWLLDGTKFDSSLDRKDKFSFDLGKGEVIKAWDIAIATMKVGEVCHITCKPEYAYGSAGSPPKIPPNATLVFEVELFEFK
Nature of the experiment: Fluorescence polarization assay, binding to FK1 domain of FKBP52. The following applies: for IC50: binding affinity, fluorescence polarization assay; for inhibition at 5 µM: read-out: FKBP52 FK1 % inhibition.

[1] abbreviates: at a concentration of 5 μM, library testing.

Usually IC50 stands for the concentration that inhibits the measured activity by half. A lower IC50 goes with higher potency. In general, inhibition refers to the relative decrease from the control value, in per cent. As for `COc1ccc(CC[C@@H](OC(=O)[C@@H]2CCCCN2S(=O)(=O)c2cccc(Cl)c2)c2cccc(OCC(=O)O)c2)cc1OC` [Compound 2], on human FKBP51FK1, the IC50 was 30.7 ± 15.7 µM and the inhibition at 5 µM was found to be 17.5%. Besides, at human FKBP52FK1, the IC50 worked out at 32.8 ± 14.5 µM and the inhibition at 5 µM is 18%.

As for `COc1ccc(CC[C@@H](OC(=O)[C@@H]2CCCCN2S(=O)(=O)c2c(Cl)cccc2Cl)c2cccc(OCC(=O)O)c2)cc1OC` [Compound 46, 2-(3-((R)-1-((S)-1-(2,6-dichlorophenylsulfonyl)piperidine-2-carbonyloxy)-3-(3,4-dimethoxyphenyl)propyl)phenoxy)acetic acid], the inhibition at 5 µM was 3.2% on human FKBP51FK1 (setting [1]) and 9.5% at human FKBP52FK1 (setting [1]).

`CCOC(=O)C1CCCCN1S(=O)(=O)c1cccc([N+](=O)[O-])c1` (centres unmarked) [Ref. 2, Ethyl 1-(3-nitrophenylsulfonyl)piperidine-2-carboxylate, reference compound]: the IC50 on human FKBP51FK1 and on human FKBP52FK1 was greater than 100 µM in each case.

`COc1ccc(CC[C@@H](OC(=O)[C@@H]2CCCCN2S(=O)(=O)c2cc3ccccc3o2)c2cccc(OCC(=O)O)c2)cc1OC` [Compound 54, 2-(3-((R)-1-((S)-1-(benzofuran-2-ylsulfonyl)piperidine-2-carbonyloxy)-3-(3,4-dimethoxyphenyl)propyl)phenoxy)acetic acid]: the inhibition at 5 µM on human FKBP51FK1 (setting [1]) stood at 5.5%; on human FKBP52FK1 (setting [1]) it was 6.6%.

For the molecule `COc1ccc(CC[C@@H](OC(=O)[C@@H]2CCCCN2S(=O)(=O)c2ccc(Oc3ccccc3)cc2)c2cccc(OCC(=O)O)c2)cc1OC` [Compound 41, 2-(3-((R)-3-(3,4-dimethoxyphenyl)-1-((S)-1-(4-phenoxyphenylsulfonyl)piperidine-2-carbonyloxy)propyl)phenoxy)acetic acid], the results for the inhibition at 5 µM on human FKBP51FK1 (setting [1]) and at human FKBP52FK1 (setting [1]) were 7.2% and 15.2%, respectively.

For the molecule `COc1ccc(CC[C@@H](OC(=O)[C@@H]2CCCCN2S(=O)(=O)c2cccc(F)c2)c2cccc(OCC(=O)O)c2)cc1OC` [Compound 11, 2-(3-((R)-3-(3,4-dimethoxyphenyl)-1-((S)-1-(3-fluorophenylsulfonyl)piperidine-2-carbonyloxy)propyl)phenoxy)acetic acid], the IC50 at human FKBP51FK1 was 18.2 ± 8.8 µM; on human FKBP52FK1, 37.3 ± 13.6 µM.

Take `COc1ccc(CC[C@@H](OC(=O)[C@@H]2CCCCN2S(=O)(=O)c2ccc(C)cc2)c2cccc(OCC(=O)O)c2)cc1OC` [Compound 63, 2-(3-((R)-3-(3,4-dimethoxyphenyl)-1-((S)-1-tosylpiperidine-2-carbonyloxy)propyl)phenoxy)acetic acid]: the inhibition at 5 µM at human FKBP51FK1 is 3.2%; at human FKBP52FK1 it was 3.8%.

For `COc1ccc(CC[C@@H](OC(=O)[C@@H]2CCCCN2S(=O)(=O)c2cc(Cl)cc(Cl)c2)c2cccc(OCC(=O)O)c2)cc1OC` [Compound 13, 2-(3-((R)-1-((S)-1-(3,5-dichlorophenylsulfonyl)piperidine-2-carbonyloxy)-3-(3,4-dimethoxy-phenyl)propyl)phenoxy)acetic acid], the IC50 was 22.6 ± 8.2 µM at human FKBP51FK1 and 14.3 ± 1.8 µM on human FKBP52FK1.

As for `COc1ccc(CC[C@@H](OC(=O)[C@@H]2CCCCN2S(=O)(=O)c2cc(Cl)c(OC)c(Cl)c2)c2cccc(OCC(=O)O)c2)cc1OC` [Compound 22, 2-(3-((R)-1-((S)-1-(3,5-dichloro-4-methoxyphenylsulfonyl)piperidine-2-carbonyloxy)-3-(3,4-dimethoxyphenyl)propyl)phenoxy)acetic acid], the IC50 on human FKBP51FK1 amounted to 16.4 ± 1.7 µM; on human FKBP52FK1 it was 17.7 ± 1.6 µM.

Turning to `COc1ccc(CC[C@@H](OC(=O)[C@@H]2CCCCN2S(=O)(=O)c2ccc3c(c2)N(C)CCO3)c2cccc(OCC(=O)O)c2)cc1OC` [Compound 51, 2-(3-((R)-3-(3,4-dimethoxyphenyl)-1-((S)-1-(4-methyl-3,4-dihydro-2H-benzo[b][1,4]oxazin-6-ylsulfonyl)piperidine-2-carbonyloxy)propyl)phenoxy)acetic acid], the inhibition at 5 µM is 9.5% on human FKBP51FK1 (setting [1]) and 6.6% at human FKBP52FK1 (setting [1]).

Regarding `COc1ccc(CC[C@@H](OC(=O)[C@@H]2CCCCN2S(=O)(=O)c2cccc(-c3nnc(C)o3)c2)c2cccc(OCC(=O)O)c2)cc1OC` [Compound 47, 2-(3-((R)-3-(3,4-dimethoxyphenyl)-1-((S)-1-(3-(5-methyl-1,3,4-oxadiazol-2-yl)phenylsulfonyl)piperidine-2-carbonyloxy)propyl)phenoxy)acetic acid], the inhibition at 5 µM on human FKBP51FK1 (setting [1]) is 4.9%; on human FKBP52FK1 (setting [1]), 3.8%.

`COc1ccc(CC[C@@H](OC(=O)[C@@H]2CCCCN2S(=O)(=O)c2c(C)nn(-c3ccccc3)c2C)c2cccc(OCC(=O)O)c2)cc1OC` [Compound 62, 2-(3-((R)-3-(3,4-dimethoxyphenyl)-1-((S)-1-(3,5-dimethyl-1-phenyl-1H-pyrazol-4-ylsulfonyl)piperidine-2-carbonyloxy)propyl)phenoxy)acetic acid]: the inhibition at 5 µM at human FKBP51FK1 (setting [1]) was determined as 0.9%; at human FKBP52FK1 (setting [1]), 4.7%.

Turning to `COc1ccc(CC[C@@H](OC(=O)[C@@H]2CCCCN2S(=O)(=O)c2ccc3[nH]c(=O)sc3c2)c2cccc(OCCN3CCOCC3)c2)cc1OC` [Compound 35, (S)-((R)-3-(3,4-dimethoxyphenyl)-1-(3-(2-morpholinoethoxy)phenyl)propyl)1-(2-oxo-2,3-dihydrobenzo[d]thiazol-6-ylsulfonyl)piperidine-2-carboxylate], the results for the IC50 at human FKBP51FK1 and on human FKBP52FK1 were 1.3 ± 0.13 µM and 2.5 ± 0.38 µM, respectively.

On to `COc1ccc(CC[C@@H](OC(=O)[C@@H]2CCCCN2S(=O)(=O)c2c(C)nn(C)c2C)c2cccc(OCC(=O)O)c2)cc1OC` [Compound 61, 2-(3-((R)-3-(3,4-dimethoxyphenyl)-1-((S)-1-(1,3,5-trimethyl-1H-pyrazol-4-ylsulfonyl)piperidine-2-carbonyloxy)propyl)phenoxy)acetic acid], for which the inhibition at 5 µM came to 5.5% at human FKBP51FK1 (setting [1]) and 1.9% on human FKBP52FK1 (setting [1]).

On to `COc1ccc(CC[C@@H](OC(=O)[C@@H]2CCCCN2S(=O)(=O)c2csc3ccccc23)c2cccc(OCC(=O)O)c2)cc1OC` [Compound 57, 2-(3-((R)-1-((S)-1-(benzo[b]thiophen-3-ylsulfonyl)piperidine-2-carbonyloxy)-3-(3,4-dimethoxyphenyl)propyl)phenoxy)acetic acid], for which the inhibition at 5 µM at human FKBP51FK1 (setting [1]) was 3.2%; on human FKBP52FK1 (setting [1]), 4.7%.

For the molecule `COc1ccc(CC[C@@H](OC(=O)[C@@H]2CCCCN2S(=O)(=O)c2cc3c(c([N+](=O)[O-])c2)OCC3)c2cccc(OCC(=O)O)c2)cc1OC` [Compound 25, 2-(3-((R)-3-(3,4-dimethoxyphenyl)-1-((S)-1-(7-nitro-2,3-dihydrobenzofuran-5-ylsulfonyl)piperidine-2-carbonyloxy)propyl)phenoxy)acetic acid], the IC50 at human FKBP51FK1 came out at 27.2 ± 3.1 µM; on human FKBP52FK1, 43.9 ± 10.1 µM.

With “2-(3-((R)-1-((S)-1-(benzo[d]thiazol-5-ylsulfonyl)piperidine-2-carbonyloxy)-3-(3,4-dimethoxy phenyl)propyl)phenoxy)acetic acid [Compound 3]”, on human FKBP51FK1 (setting [1]), the “FKBP 51 FK1 % inhibition” value is 25.5%. Also, the figures for the IC50 at human FKBP51FK1 and on human FKBP52FK1 were 11.6 ± 1.1 µM and 32.5 ± 3.5 µM, respectively. For the same molecule, the “FKBP52 FK1 % inhibition” value at human FKBP52FK1 (setting [1]) turned out to be 16.1%.

Take `COc1ccc(CC[C@@H](OC(=O)[C@@H]2CCCCN2S(=O)(=O)c2ccc(C(F)(F)F)c(Cl)c2)c2cccc(OCC(=O)O)c2)cc1OC` [Compound 48, 2-(3-((R)-1-((S)-1-(3-chloro-4-(trifluoromethyl)phenylsulfonyl)piperidine-2-carbonyloxy)-3-(3,4-dimethoxyphenyl)propyl)phenoxy)acetic acid]: the figures for the inhibition at 5 µM on human FKBP51FK1 (setting [1]) and at human FKBP52FK1 (setting [1]) were -0.2% and 11.4%, respectively.

In the case of `COc1ccc(CC[C@@H](OC(=O)[C@@H]2CCCCN2S(=O)(=O)c2cccnc2)c2cccc(OCC(=O)O)c2)cc1OC` [Compound 42, 2-(3-((R)-3-(3,4-dimethoxyphenyl)-1-((S)-1-(pyridin-3-ylsulfonyl)piperidine-2-carbonyloxy)propyl)phenoxy)acetic acid], the inhibition at 5 µM at human FKBP51FK1 stood at 6.6%; on human FKBP52FK1 it was 9.5%.

For the molecule `COc1ccc(CC[C@@H](OC(=O)[C@@H]2CCCCN2S(=O)(=O)c2cccc3c2ccn3C)c2cccc(OCC(=O)O)c2)cc1OC` [Compound 49, 2-(3-((R)-3-(3,4-dimethoxyphenyl)-1-((S)-1-(1-methyl-1H-indol-4-ylsulfonyl)piperidine-2-carbonyloxy)propyl)phenoxy)acetic acid], the inhibition at 5 µM at human FKBP51FK1 (setting [1]) was -0.8%; at human FKBP52FK1 (setting [1]), 6.6%.

As to `COc1ccc(CCCOC(=O)C2CCCCN2S(=O)(=O)Cc2ccccc2)cc1OC` (centres unmarked) [Ref. 3, 3-(3,4-dimethoxyphenyl)propyl 1-(benzylsulfonyl)piperidine-2-carboxylate, reference compound], the IC50 on human FKBP51FK1 and at human FKBP52FK1 was greater than 100 µM throughout.

In the case of `COc1ccc(CC[C@@H](OC(=O)[C@@H]2CCCCN2S(=O)(=O)c2ccc(-c3ccccc3)s2)c2cccc(OCC(=O)O)c2)cc1OC` [Compound 56, 2-(3-((R)-3-(3,4-dimethoxyphenyl)-1-((S)-1-(5-phenylthiophen-2-ylsulfonyl)piperidine-2-carbonyloxy)propyl)phenoxy)acetic acid], the inhibition at 5 µM on human FKBP51FK1 (setting [1]) is 3.2%; on human FKBP52FK1 (setting [1]), 9.5%.

On to `COc1ccc(CC[C@@H](OC(=O)[C@@H]2CCCCN2S(=O)(=O)c2cc(Cl)c(O)c(Cl)c2)c2cccc(OCC(=O)O)c2)cc1OC` [Compound 21, 2-(3-((R)-1-((S)-1-(3,5-dichloro-4-hydroxyphenylsulfonyl)piperidine-2-carbonyloxy)-3-(3,4-dimethoxyphenyl)propyl)phenoxy)acetic acid], for which the IC50 on human FKBP51FK1 turned out to be 15.1 ± 1.4 µM; on human FKBP52FK1 it was 56.6 ± 12.2 µM.
